The values below come from ChEMBL document CHEMBL2396566, “Development of a novel class of pyrrolo-[1,2,5]benzothiadiazepine derivatives as potential anti-schistosomal agents” (2013).

Common to all, as to type: functional
For assay [1], the system named is Schistosoma japonicum. The assay can be described thus: Antiparasitic activity against Schistosoma japonicum assessed as worm survival at 50 uM incubated for 16 hrs measured after 24 hrs.
Assay [2] concerns Schistosoma japonicum. The assay can be described thus: Antiparasitic activity against Schistosoma japonicum assessed as worm survival at 50 uM incubated for 16 hrs measured after 72 hrs.
Assay [3] deals with Schistosoma japonicum. Nature of the assay: Antiparasitic activity against Schistosoma japonicum assessed as worm survival at 50 uM incubated for 16 hrs measured after 48 hrs.
Assay [4] concerns Schistosoma japonicum. Nature of the assay: Antiparasitic activity against Schistosoma japonicum adult worm infected in ICR mouse assessed as worm reduction at 200 mg/kg, po administered for 3 days measured after 21 days. On the set-up: scale not given: the % may be the effect or the level left.

On to `O=C(O)C1Nc2ccccc2S(=O)(=O)n2cccc21` (configuration not stated), for which the survival at 50 µM in assay [1], in assay [2] and in assay [3] was 100% each time.
In the case of `CCOC(=O)C1Nc2ccccc2Sn2c(Br)ccc21` (configuration not stated), the Activity in assay [4] was 12%. The survival at 50 µM was found to be 100% in assay [1], 66.7% in assay [2] and 100% in assay [3].
Take `CCOC(=O)C1Nc2ccccc2Sn2c(Cl)ccc21` (configuration not stated): the Activity in assay [4] was determined as 51.5%. Also, the results for the survival at 50 µM in assay [1], in assay [2] and in assay [3] were 100%, 33.3% and 83.3%, respectively.
Turning to `CCOC(=O)C1Nc2ccccc2[S+]([O-])n2cccc21` (configuration not stated), the survival at 50 µM in assay [1], in assay [2] and in assay [3] was 100% each time.
In the case of `CCOC(=O)C1Nc2ccccc2Nn2cccc21` (configuration not stated), the survival at 50 µM in assay [1], in assay [2] and in assay [3] was 100% each time.
Take `CCOC(=O)C1Nc2ccccc2N(C)n2cccc21` (configuration not stated): the Activity in assay [4] is on record as 34.8%. In addition, the survival at 50 µM in assay [1] was found to be 100%; in assay [2], 83.3%; in assay [3], 100%.
Turning to `CC1=Nc2ccccc2N(C)n2cccc21`, in assay [4], the Activity was found to be 24.2%. The survival at 50 µM worked out at 100% in assay [1], 83.3% in assay [2] and 100% in assay [3].
For the compound `CN1c2ccccc2N=Cc2cccn21`, the Activity in assay [4] worked out at 6.1%. Moreover, the survival at 50 µM was determined as 100% in assay [1], 83.3% in assay [2] and 100% in assay [3].
Consider `CCOC(=O)C1Nc2ccccc2Cn2cccc21` (configuration not stated), for which the Activity in assay [4] worked out at 74.2%. For the same compound, the survival at 50 µM amounted to 100% in assay [1], 83.3% in assay [2] and 100% in assay [3].
Take `O=C1Nc2ccccc2Sn2cccc21`: the survival at 50 µM in assay [1], in assay [2] and in assay [3] was 100% each time.
With `CCOC(=O)C1Nc2ccccc2Sn2cccc21` (configuration not stated), the Activity in assay [4] is 4.5%. In addition, the survival at 50 µM in assay [1] came to 100%; in assay [2], 16.7%; in assay [3] it was 66.7%.
For `CCOC(=O)C1Nc2ccccc2S(=O)(=O)n2cccc21` (configuration not stated), the survival at 50 µM in assay [1], in assay [2] and in assay [3] was 100% each time.
Turning to `O=C(C1CCCCC1)N1CC(=O)N2CCc3ccccc3C2C1` (configuration not stated) [PRAZIQUANTEL], in assay [4], the Activity is reported as 96.9%. The survival at 50 µM in assay [1] turned out to be 66.7%; in assay [2], 33.3%; in assay [3], 33.3%.
